Source: publication PMC12401824, “Studies on the impact of modifications at the Gln-Trp site in RM2-based GRPR ligands” (EJNMMI Research, 2025)
Where two headings read alike, the source gives them in different places. Starred links: 1 amine or outer side, 2 acyl side, 3 side chain; linkers in the order of their positions; H or OH if unused. Non-standard residues stand in square brackets, D forms with d. Residues, ends and D or L forms follow the SMILES beside them. *: point of attachment. X2 = O=C(O)CN1CCN(CC(=O)O)CCN(CC(=O)NCc2ccc(NC(=O)COCC(=O)*)cc2)CCN(CC(=O)O)CC1; DOTA = O=C(O)CN1CCN(CC(=O)O)CCN(CC(=O)*)CCN(CC(=O)O)CC1; NODAGA = O=C(O)CN1CCN(CC(=O)O)CCN(C(CCC(=O)*)C(=O)O)CC1; NOTA = O=C(O)CN1CCN(CC(=O)O)CCN(CC(=O)*)CC1; Sta = CC(C)C[C@H](N)[C@@H](O)CC(=O)O; Bta = N[C@@H](Cc1csc2ccccc12)C(=O)O; X1 = O=C(CN1CCC(N[*:1])CC1)[*:2]; NHCH(iBu)2 = CC(C)CC(CC(C)C)N*; hSer = N[C@@H](CCO)C(=O)O

Key:
[1] = biological target: T1, GRPR (Homo sapiens, UniProt P30550); experiment: GRPR affinity (IC50), competitive binding on PC-3 cells vs [3-[^125I]I-D-Tyr^6]MJ9; conditions: 2 h, rt
T1 construct: host or cells: PC-3 cells
Procedure: IC50 values of all compounds were determined according to a previously published procedure. Detailed information on culturing PC-3 cells and on the execution of IC50 studies is provided in the supplementary materials. In brief, competitive binding studies were performed in triplicate on PC-3 cells (1.5 × 10^5 cells in 1 mL/well) after incubation at room temperature for 2 h, using [3-[^125I]I-D-Tyr^6]MJ9 (0.2 nM/well) as radiolabeled reference (n = 3).
After removal of the culture medium, the cells were washed once with 500 µL of HBSS (Hank’s balanced salt solution, Biochrom GmbH, Berlin, Germany, with addition of 1% bovine serum albumin (BSA, v/v)) and left in 200 µL HBSS (1% BSA, v/v) for 9 min at rt for equilibration. Next, 25 µL per well of solutions, containing either HBSS (1% BSA, v/v) as control or the respective compound in increasing concentration (10^-10 M – 10^-4 M in HBSS (1% BSA, v/v)), were added with subsequent addition of 25 µL of [3-[^125I]I-D-Tyr^6]MJ9 (2.0 nm) in HBSS (1% BSA, v/v).
All experiments were performed in triplicate for each concentration. After 2 h incubation at rt, the experiment was terminated by removal of the medium and consecutive rinsing with 300 µL of HBSS (1% BSA, v/v). The media of both steps were combined in one fraction and represent the amount of free radiolabeled reference. Afterwards, the cells were lysed with 300 µL of 1 M NaOH for at least 15 min and united with the 300 µL NaOH of the following washing step. Quantification of bound and free radiolabeled reference was accomplished in a γ-counter. IC50 determination for each conjugate was repeated twice.

[2] = Metabolic stability in vitro in human serum (37 °C, 72 ± 2 h); assay type: in vitro ADME; conditions: ^177Lu-labeled NeoB and UL analogs, n = 3
Procedure: Metabolic stability in vitro was determined applying a procedure published by Linder et al. that was slightly modified. Immediately after labeling, human serum (200 µL) was added to the labeling solution (~ 30 µL) and the mixture was incubated at 37 °C for 72 ± 2 h. Proteins were precipitated by treatment with ice-cold ethanol (150 µL) and ice-cold acetonitrile (450 µL), followed by centrifugation at 13,000 rpm for 5 min. The supernatants were decanted and further analyzed using radio RP-HPLC.

[3] = Cu-complexed, n = 3, read-out: IC50 (nM), Cu-labeled
[4] = Ga-complexed, n = 3, read-out: IC50 (nM), Ga-labeled

T1 sequence (P30550 whole entry): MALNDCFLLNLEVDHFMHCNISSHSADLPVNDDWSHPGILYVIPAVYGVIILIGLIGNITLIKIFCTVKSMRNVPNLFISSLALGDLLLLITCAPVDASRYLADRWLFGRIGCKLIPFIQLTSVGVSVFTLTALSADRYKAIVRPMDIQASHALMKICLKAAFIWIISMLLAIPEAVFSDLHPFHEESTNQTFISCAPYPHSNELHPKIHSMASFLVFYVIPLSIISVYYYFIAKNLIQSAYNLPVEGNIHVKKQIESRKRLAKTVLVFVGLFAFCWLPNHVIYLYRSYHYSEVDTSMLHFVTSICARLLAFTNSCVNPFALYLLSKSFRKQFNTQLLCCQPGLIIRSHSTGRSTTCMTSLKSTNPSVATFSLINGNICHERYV

Row | Compound | IC50 [1, 3] | IC50 [1, 4] | Percentage of intact compound in human serum [2]
1 | CC(C)C[C@H](NC(=O)C[C@H](O)[C@H](CC(C)C)NC(=O)[C@H](Cc1c[nH]cn1)NC(=O)CNC(=O)[C@@H](NC(=O)[C@H](C)NC(=O)[C@H](Cc1c[nH]c2ccccc12)NC(=O)[C@H](CCO)NC(=O)[C@@H](Cc1ccccc1)NC(=O)CN1CCC(NC(=O)CCC(C(=O)O)N2CCN(CC(=O)O)CCN(CC(=O)O)CC2)CC1)C(C)C)C(N)=O (stereo partly drawn) [NODAGA-[des-DOTA, Hse^7]RM2] ({NODAGA}-[X1][dF][hSer]WAVGH[Sta]L-NH2) | 11.8 ± 2.1 nM | 7.2 ± 0.7 nM | 
2 | CC(C)CC(CC(C)C)NC(=O)[C@H](Cc1cnc[nH]1)NC(=O)CNC(=O)[C@@H](NC(=O)[C@H](C)NC(=O)[C@H](Cc1c[nH]c2ccccc12)NC(=O)[C@H](CCC(N)=O)NC(=O)[C@@H](Cc1ccccc1)NC(=O)COCC(=O)Nc1ccc(CNC(=O)CN2CCN(CC(=O)O)CCN(CC(=O)O)CCN(CC(=O)O)CC2)cc1)C(C)C [NeoB, reference compound] |  |  | 60.8 ± 1.2%
3 | CC(C)CC(CC(C)C)NC(=O)[C@H](Cc1c[nH]cn1)NC(=O)CNC(=O)[C@@H](NC(=O)[C@H](C)NC(=O)[C@H](Cc1csc2ccccc12)NC(=O)[C@H](CCC(N)=O)NC(=O)[C@@H](Cc1ccccc1)NC(=O)COCC(=O)Nc1ccc(CNC(=O)CN2CCN(CC(=O)O)CCN(CC(=O)O)CCN(CC(=O)O)CC2)cc1)C(C)C [[Bta^8]NeoB] (X2-[dF]Q[Bta]AVGH-{NHCH(iBu)2}; N-terminus and C-terminus assumed) |  |  | 36.2 ± 2.6%
4 | CC(C)CC(CC(C)C)NC(=O)[C@H](Cc1c[nH]cn1)NC(=O)CNC(=O)[C@@H](NC(=O)[C@H](C)NC(=O)[C@H](Cc1c[nH]c2ccccc12)NC(=O)[C@H](CCO)NC(=O)[C@@H](Cc1ccccc1)NC(=O)COCC(=O)Nc1ccc(CNC(=O)CN2CCN(CC(=O)O)CCN(CC(=O)O)CCN(CC(=O)O)CC2)cc1)C(C)C [[Hse^7]NeoB] (X2-[dF][hSer]WAVGH-{NHCH(iBu)2}; N-terminus and C-terminus assumed) |  |  | 57.4 ± 2.1%
5 | CC(C)CC(CC(C)C)NC(=O)[C@H](Cc1c[nH]cn1)NC(=O)CNC(=O)[C@@H](NC(=O)[C@H](C)NC(=O)[C@](C)(Cc1c[nH]c2ccccc12)NC(=O)[C@H](CCC(N)=O)NC(=O)[C@@H](Cc1ccccc1)NC(=O)COCC(=O)Nc1ccc(CNC(=O)CN2CCN(CC(=O)O)CCN(CC(=O)O)CCN(CC(=O)O)CC2)cc1)C(C)C [[α-Me-Trp^8]NeoB] |  |  | 70.7 ± 2.8%

Further lines, with some results ahead:

Row | IC50 [1, 3] | IC50 [1, 4] | Compound | Percentage of intact compound in human serum [2]
6 | 2.8 ± 0.2 nM | 1.8 nM | CC(C)C[C@H](NC(=O)C[C@H](O)[C@H](CC(C)C)NC(=O)[C@H](Cc1c[nH]cn1)NC(=O)CNC(=O)[C@@H](NC(=O)[C@H](C)NC(=O)[C@H](Cc1csc2ccccc12)NC(=O)[C@H](CCC(N)=O)NC(=O)[C@@H](Cc1ccccc1)NC(=O)CN1CCC(NC(=O)CN2CCN(CC(=O)O)CCN(CC(=O)O)CC2)CC1)C(C)C)C(N)=O [NOTA-[des-DOTA, Bta^8]RM2] ({NOTA}-[X1][dF]Q[Bta]AVGH[Sta]L-NH2) | 
7 | 14.2 ± 2.7 nM | 8.4 ± 1 nM | CC(C)C[C@H](NC(=O)C[C@H](O)[C@H](CC(C)C)NC(=O)[C@H](Cc1c[nH]cn1)NC(=O)CNC(=O)[C@@H](NC(=O)[C@H](C)NC(=O)[C@H](Cc1c[nH]c2ccccc12)NC(=O)[C@H](CCO)NC(=O)[C@@H](Cc1ccccc1)NC(=O)CN1CCC(NC(=O)CN2CCN(CC(=O)O)CCN(CC(=O)O)CC2)CC1)C(C)C)C(N)=O [NOTA-[des-DOTA, Hse^7]RM2] ({NOTA}-[X1][dF][hSer]WAVGH[Sta]L-NH2) | 
8 | 4.2 ± 0.6 nM | 2.3 ± 0.1 nM | CC(C)C[C@H](NC(=O)C[C@H](O)[C@H](CC(C)C)NC(=O)[C@H](Cc1c[nH]cn1)NC(=O)CNC(=O)[C@@H](NC(=O)[C@H](C)NC(=O)[C@H](Cc1csc2ccccc12)NC(=O)[C@H](CCC(N)=O)NC(=O)[C@@H](Cc1ccccc1)NC(=O)CN1CCC(NC(=O)CN2CCN(CC(=O)O)CCN(CC(=O)O)CCN(CC(=O)O)CC2)CC1)C(C)C)C(N)=O [[Bta^8]RM2] ({DOTA}-[X1][dF]Q[Bta]AVGH[Sta]L-NH2) | 
9 | 33 ± 2.7 nM | 7.7 ± 0.7 nM | CC(C)C[C@H](NC(=O)C[C@H](O)[C@H](CC(C)C)NC(=O)[C@H](Cc1c[nH]cn1)NC(=O)CNC(=O)[C@@H](NC(=O)[C@H](C)NC(=O)[C@H](Cc1c[nH]c2ccccc12)NC(=O)[C@H](CCO)NC(=O)[C@@H](Cc1ccccc1)NC(=O)CN1CCC(NC(=O)CN2CCN(CC(=O)O)CCN(CC(=O)O)CCN(CC(=O)O)CC2)CC1)C(C)C)C(N)=O [[Hse^7]RM2] ({DOTA}-[X1][dF][hSer]WAVGH[Sta]L-NH2) | 
